Test results taken from patent publication US6362170B1, “Benzylglycosylamides as inhibitors of smooth muscle cell proliferation” (American Home Products Corporation, priority 1998, dated 2002).

Tested on: Porcine Smooth Muscle Cell
Assay: Effects of compounds on cell proliferation using 3H thymidine incorporation
Format: cell-based
Settings: serum/growth factor stimulated cells; for IC50: 24-36 h incubation, read-out: Porcine Smooth Muscle Cell Antiproliferation IC50
Method: Effects of Compounds on Cell Proliferation Using ^3H Thymidine Incorporation
Human and porcine smooth muscle cells were tested in early passage (generally passage 3-7) at sub-confluent conditions. Cultures were grown in 16 mm (24 well) multi-well culture dishes in medium 199 supplemented with 10% fetal bovine serum and 2% antibiotic/antimycotic. At sub-confluence, the cells were placed in a defined serum free medium (AIM-V; Gibco) for 24-48 h prior to initiating the experimental protocol.
Compounds were added to each well at 50 fold dilution (20 μL/well) and the plates were incubated for 24-36 h at 37° C. in 5% CO2. Compounds were initially dissolved in 50% ethanol and serially diluted into media. Compounds were routinely evaluated at concentrations from 1 to 100 μM. As a control, grade II porcine intestinal mucosal heparin (sodium salt) was routinely evaluated in all cell preparations at concentrations from 0.1 to 100 μg/mL.
At the completion of the test procedure, plates were placed on ice, washed three times with ice cold phosphate buffered saline (PBS) and incubated in ice cold 10% trichloroacetic acid (TCA) got 30 min to remove acid soluble proteins. Solution was transferred to scintillation vials containing 0.4 N HCl (500 μL/vial to neutralize NaOH) and each well was rinsed two times with water (500 μL) for a total volume of 2 mL/vial.
Data was obtained, in triplicate, for both control and experimental samples. Control (100%) data was obtained from maximally stimulated cells, as the result of growth factor or serum stimulation. Experimental data was obtained from cells maximally stimulated with growth factor or serum and treated with compound. Data are provided below in Table 1 as an IC50.

| Structure (SMILES) | IC50 [µM] | Porcine Smooth Muscle Cell Antiproliferation (% at 50 μM) |
| --- | --- | --- |
| CC(=O)OCC1OC(NC(=O)c2ccc(Cl)nc2)C(OC(C)=O)C(OC(C)=O)C1OC1OC(COC(C)=O)C(OC(C)=O)C(OC(C)=O)C1OC(C)=O [Example 1, 6-Chloro-N-(Hepta-O-acetyl-β-D-cellobiosyl)-3-pyridinecarboxamide] | 3.55 | – |
| O=C(NC1OC(CO)C(OC2OC3COC(c4ccccc4)OC3C(O)C2O)C(O)C1O)c1ccc(Cl)nc1 [Example 2, N-(4′,6′-O-benzylidene-β-D-cellobiosyl)-6-chloro-nicotinamide] | – | 40 |
| COc1ccc(C(=O)NC2OC(COC(C)=O)C(OC3OC(COC(C)=O)C(OC(C)=O)C(OC(C)=O)C3OC(C)=O)C(OC(C)=O)C2OC(C)=O)c(OC)n1 (centres unmarked) [Example 4] | 3.11 | – |
| O=C(NC1OC(CO)C(OC2OC3COC(c4ccccc4)OC3C(O)C2O)C(O)C1O)c1ccc(F)cc1Cl [Example 6, N-(4′,6′-O-benzylidene-β-D-cellobiosyl)-2-chloro-4-flouro-benzamide] | – | 5 |
| CC(=O)OCC1OC(NC(=O)c2ccc(F)c(Cl)c2)C(OC(C)=O)C(OC(C)=O)C1OC1OC(COC(C)=O)C(OC(C)=O)C(OC(C)=O)C1OC(C)=O [Example 5, N-(hepta-O-acetyl-β-D-cellobiosyl)-3-chloro-4-fluoro-benzamide] | 11.7 | – |
